ChEMBL document CHEMBL1146940, “Structure-activity relationship study between Ornithyl-Proline and Lysyl-Proline based tripeptidomimics as angiotensin-converting enzyme inhibitors” (Bioorg Med Chem Lett, 2006)
Blank lines part the entries; values can stand above or below the compound they belong to. Square brackets hold non-standard residues; d marks the D form. Peptide text beside a SMILES is read from it. Trp(5-OH) = N[C@@H](Cc1c[nH]c2ccc(O)cc12)C(=O)O; NMeW = CN[C@@H](Cc1c[nH]c2ccccc12)C(=O)O; Dip = N[C@H](C(=O)O)C(c1ccccc1)c1ccccc1; β3hW = N[C@H](CC(=O)O)Cc1c[nH]c2ccccc12; Tic = O=C(O)[C@@H]1Cc2ccccc2CN1; 3Thi = N[C@@H](Cc1ccsc1)C(=O)O; Cha = N[C@@H](CC1CCCCC1)C(=O)O; Orn = NCCC[C@H](N)C(=O)O

Key:
[1] = target: Angiotensin-converting enzyme (Bos taurus) (UniProt P12820); assay: Inhibition of ACE in bovine kidney; set-up: concentration or dose not given beside the values; conditions: concentration not given here
[2] = target: Angiotensin-converting enzyme (Bos taurus) (UniProt P12820); assay: Activity against ACE in bovine kidney

Angiotensin-converting enzyme (Bos taurus), sequence (P12820 whole entry, looked up): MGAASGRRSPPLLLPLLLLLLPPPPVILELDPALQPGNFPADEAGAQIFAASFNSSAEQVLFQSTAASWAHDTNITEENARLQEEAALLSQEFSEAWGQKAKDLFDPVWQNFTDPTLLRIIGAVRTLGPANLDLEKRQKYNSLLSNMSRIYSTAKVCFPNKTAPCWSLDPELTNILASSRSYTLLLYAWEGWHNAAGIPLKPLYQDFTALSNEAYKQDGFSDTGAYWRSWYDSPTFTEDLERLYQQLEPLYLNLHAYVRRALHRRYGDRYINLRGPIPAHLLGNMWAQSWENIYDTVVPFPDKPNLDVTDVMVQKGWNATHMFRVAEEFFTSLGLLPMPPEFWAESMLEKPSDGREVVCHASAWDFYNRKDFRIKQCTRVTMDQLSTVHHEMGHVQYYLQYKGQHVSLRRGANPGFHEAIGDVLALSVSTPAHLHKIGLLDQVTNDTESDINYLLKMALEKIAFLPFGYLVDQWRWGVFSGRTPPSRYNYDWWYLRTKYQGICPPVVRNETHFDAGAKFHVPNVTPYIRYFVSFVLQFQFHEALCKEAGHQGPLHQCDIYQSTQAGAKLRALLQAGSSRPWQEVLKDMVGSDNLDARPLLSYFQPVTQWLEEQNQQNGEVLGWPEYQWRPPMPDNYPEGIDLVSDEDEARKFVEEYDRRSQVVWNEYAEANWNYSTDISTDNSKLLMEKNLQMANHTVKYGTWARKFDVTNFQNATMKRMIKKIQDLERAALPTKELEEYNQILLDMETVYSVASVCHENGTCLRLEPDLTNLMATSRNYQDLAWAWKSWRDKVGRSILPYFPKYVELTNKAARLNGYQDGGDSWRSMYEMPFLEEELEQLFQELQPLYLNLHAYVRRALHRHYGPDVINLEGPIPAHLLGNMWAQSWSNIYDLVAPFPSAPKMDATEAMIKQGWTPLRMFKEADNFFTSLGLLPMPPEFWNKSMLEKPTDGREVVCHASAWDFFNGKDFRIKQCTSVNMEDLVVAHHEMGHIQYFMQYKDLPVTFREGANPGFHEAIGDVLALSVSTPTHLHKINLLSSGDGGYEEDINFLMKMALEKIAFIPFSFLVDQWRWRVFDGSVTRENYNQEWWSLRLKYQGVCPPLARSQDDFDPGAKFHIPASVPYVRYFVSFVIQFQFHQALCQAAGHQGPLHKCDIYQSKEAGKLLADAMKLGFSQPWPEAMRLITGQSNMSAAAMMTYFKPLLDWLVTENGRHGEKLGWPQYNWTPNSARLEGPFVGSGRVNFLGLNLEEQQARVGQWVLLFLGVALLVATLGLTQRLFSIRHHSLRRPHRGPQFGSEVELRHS

Structure (SMILES): NCCCC[C@H](NC(=O)CCc1ccc(O)cc1)C(=O)N1CCC[C@H]1C(=O)O
- inhibition [1]: 29.3%
- Activity [2]: 9.52 mU/ml

Structure (SMILES): NCCCC[C@H](NC(=O)C[C@@H](N)Cc1ccccc1)C(=O)N1CCC[C@H]1C(=O)O
- inhibition [1]: 22.6%
- Activity [2]: 10.4 mU/ml

Structure (SMILES): NCCC[C@H](NC(=O)CCc1ccc(O)cc1)C(=O)N1CCC[C@H]1C(=O)O
- inhibition [1]: 23.8%
- Activity [2]: 10.3 mU/ml

Structure (SMILES): NCCC[C@H](NC(=O)CCc1nc2ccccc2[nH]1)C(=O)N1CCC[C@H]1C(=O)O
- inhibition [1]: 65.5%
- Activity [2]: 4.7 mU/ml

Structure (SMILES): NCCC[C@H](NC(=O)C[C@@H](N)Cc1ccccc1)C(=O)N1CCC[C@H]1C(=O)O
- inhibition [1]: 31.7%
- Activity [2]: 9.21 mU/ml

Structure (SMILES): NCCCC[C@H](NC(=O)[C@@H](N)C(c1ccccc1)c1ccccc1)C(=O)N1CCC[C@H]1C(=O)O (H-[Dip]-Lys-Pro-OH)
- inhibition [1]: 33.8%
- Activity [2]: 8.91 mU/ml

Structure (SMILES): NCCC[C@H](NC(=O)[C@@H](N)C(c1ccccc1)c1ccccc1)C(=O)N1CCC[C@H]1C(=O)O (H-[Dip]-[Orn]-Pro-OH)
- inhibition [1]: 27.7%
- Activity [2]: 9.74 mU/ml

Structure (SMILES): CN[C@@H](Cc1c[nH]c2ccccc12)C(=O)N[C@@H](CCCCN)C(=O)N1CCC[C@H]1C(=O)O (H-[NMeW]-Lys-Pro-OH)
- inhibition [1]: 39.1%
- Activity [2]: 8.2 mU/ml

Structure (SMILES): CN[C@@H](Cc1c[nH]c2ccccc12)C(=O)N[C@@H](CCCN)C(=O)N1CCC[C@H]1C(=O)O (H-[NMeW]-[Orn]-Pro-OH)
- inhibition [1]: 63.6%
- Activity [2]: 4.88 mU/ml

Structure (SMILES): NCCCC[C@H](NC(=O)[C@@H]1Cc2ccccc2CN1)C(=O)N1CCC[C@H]1C(=O)O (H-[Tic]-Lys-Pro-OH)
- inhibition [1]: 19.4%
- Activity [2]: 10.8 mU/ml

Structure (SMILES): NCCC[C@H](NC(=O)[C@@H]1Cc2ccccc2CN1)C(=O)N1CCC[C@H]1C(=O)O (H-[Tic]-[Orn]-Pro-OH)
- inhibition [1]: 25%
- Activity [2]: 10.1 mU/ml

Structure (SMILES): NCCC[C@H](NC(=O)[C@@H](N)Cc1c[nH]c2ccc(O)cc12)C(=O)N1CCC[C@H]1C(=O)O (H-[Trp(5-OH)]-[Orn]-Pro-OH)
- inhibition [1]: 68.8%
- Activity [2]: 4.2 mU/ml

Structure (SMILES): NCCCC[C@H](NC(=O)C[C@@H](N)Cc1c[nH]c2ccccc12)C(=O)N1CCC[C@H]1C(=O)O (H-[β3hW]-Lys-Pro-OH)
- inhibition [1]: 30.2%
- Activity [2]: 9.4 mU/ml

Structure (SMILES): NCCC[C@H](NC(=O)C[C@@H](N)Cc1c[nH]c2ccccc12)C(=O)N1CCC[C@H]1C(=O)O (H-[β3hW]-[Orn]-Pro-OH)
- inhibition [1]: 9.13%
- Activity [2]: 12.2 mU/ml

Next, values leading:

- inhibition [1]: 10.1%
- Activity [2]: 12.1 mU/ml
Structure (SMILES): NCCCC[C@H](NC(=O)[C@@H](N)Cc1ccco1)C(=O)N1CCC[C@H]1C(=O)O

- inhibition [1]: 35.6%
- Activity [2]: 8.67 mU/ml
Structure (SMILES): NCCC[C@H](NC(=O)[C@@H](N)Cc1ccco1)C(=O)N1CCC[C@H]1C(=O)O

- inhibition [1]: 13.3%
- Activity [2]: 11.7 mU/ml
Structure (SMILES): NCCCC[C@H](NC(=O)[C@@H](N)Cc1ccsc1)C(=O)N1CCC[C@H]1C(=O)O (H-[3Thi]-Lys-Pro-OH)

- inhibition [1]: 74.7%
- Activity [2]: 3.41 mU/ml
Structure (SMILES): NCCC[C@H](NC(=O)[C@@H](N)Cc1ccsc1)C(=O)N1CCC[C@H]1C(=O)O (H-[3Thi]-[Orn]-Pro-OH)

- inhibition [1]: 3.71%
- Activity [2]: 13.1 mU/ml
Structure (SMILES): NCCCC[C@H](NC(=O)[C@@H](N)CC1CCCCC1)C(=O)N1CCC[C@H]1C(=O)O (H-[Cha]-Lys-Pro-OH)

- inhibition [1]: 30.8%
- Activity [2]: 9.32 mU/ml
Structure (SMILES): NCCC[C@H](NC(=O)[C@@H](N)CC1CCCCC1)C(=O)N1CCC[C@H]1C(=O)O (H-[Cha]-[Orn]-Pro-OH)
